The record followed here is patent US12023385B2, “Tunable endogenous protein degradation with heterobifunctional compounds” (DANA-FARBER CANCER INSTITUTE, INC., priority 2017, dated 2024).

Assay [1] addresses T1, FKBP12WT (Homo sapiens, UniProt P62942).
T1 construct: HA; expressed in transfected cells; host or cells: 293FT cells (CRBN-WT or CRBN-/-)
Put plainly: Immunoblot of wild type FKBP12 in 293FT cells (selectivity control). The assay is classed as cell-based. As to conditions: 4 hours. As for the experimental part: The dTAG is predicated on the selectivity of FKBP* specific ligands over endogenous, wild type FKBP. […] An immunoblot of cells treated with heterobifunctional compounds described in the present invention was performed. 293FT cells (CRBN-WT or CRBN−/−) expressing either HA-tagged FKBP12WT or FKBP* were treated with indicated concentrations of dFKBP7 for 4 hours.
Isogenic 293FT cells (CRBN-WT or CRBN−/−) were engineered to expressed either FKBP12WT or FKBP*. Cells were treated with 100 nM of either dFKBP7 or dFKBP13 for 4 hours before lysates were prepared for western immunoblot analysis.
On the technique in general: In western blotting, separated proteins are transferred to a membrane and probed.

Assay [2] deals with T2, FKBP* fused to Nluc (Homo sapiens, UniProt P62942, F37V).
T2 construct: Nluc (nano luciferase) fusion partner; expressed in transfected cells; host or cells: 293FT cells (wild type or CRBN-/-)
T2 sequence (P62942 2-108 F37V): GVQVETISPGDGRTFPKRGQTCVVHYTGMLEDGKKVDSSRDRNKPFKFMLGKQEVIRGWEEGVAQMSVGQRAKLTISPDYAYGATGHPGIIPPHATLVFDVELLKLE
T2 sequence (Q96SW2 whole entry partner, the tested form may be a part): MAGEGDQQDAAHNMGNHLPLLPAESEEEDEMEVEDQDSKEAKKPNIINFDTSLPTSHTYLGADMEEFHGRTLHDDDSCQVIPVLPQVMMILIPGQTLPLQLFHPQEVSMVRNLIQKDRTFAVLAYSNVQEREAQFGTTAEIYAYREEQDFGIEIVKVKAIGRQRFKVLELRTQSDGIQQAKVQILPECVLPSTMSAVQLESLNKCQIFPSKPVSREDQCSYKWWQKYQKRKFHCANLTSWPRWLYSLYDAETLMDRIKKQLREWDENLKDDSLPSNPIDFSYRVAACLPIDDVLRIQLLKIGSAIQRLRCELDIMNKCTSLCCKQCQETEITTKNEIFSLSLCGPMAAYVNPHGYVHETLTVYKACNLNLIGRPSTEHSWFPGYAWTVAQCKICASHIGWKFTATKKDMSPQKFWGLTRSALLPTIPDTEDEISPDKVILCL
T2 sequence (Q16531 whole entry partner, the tested form may be a part): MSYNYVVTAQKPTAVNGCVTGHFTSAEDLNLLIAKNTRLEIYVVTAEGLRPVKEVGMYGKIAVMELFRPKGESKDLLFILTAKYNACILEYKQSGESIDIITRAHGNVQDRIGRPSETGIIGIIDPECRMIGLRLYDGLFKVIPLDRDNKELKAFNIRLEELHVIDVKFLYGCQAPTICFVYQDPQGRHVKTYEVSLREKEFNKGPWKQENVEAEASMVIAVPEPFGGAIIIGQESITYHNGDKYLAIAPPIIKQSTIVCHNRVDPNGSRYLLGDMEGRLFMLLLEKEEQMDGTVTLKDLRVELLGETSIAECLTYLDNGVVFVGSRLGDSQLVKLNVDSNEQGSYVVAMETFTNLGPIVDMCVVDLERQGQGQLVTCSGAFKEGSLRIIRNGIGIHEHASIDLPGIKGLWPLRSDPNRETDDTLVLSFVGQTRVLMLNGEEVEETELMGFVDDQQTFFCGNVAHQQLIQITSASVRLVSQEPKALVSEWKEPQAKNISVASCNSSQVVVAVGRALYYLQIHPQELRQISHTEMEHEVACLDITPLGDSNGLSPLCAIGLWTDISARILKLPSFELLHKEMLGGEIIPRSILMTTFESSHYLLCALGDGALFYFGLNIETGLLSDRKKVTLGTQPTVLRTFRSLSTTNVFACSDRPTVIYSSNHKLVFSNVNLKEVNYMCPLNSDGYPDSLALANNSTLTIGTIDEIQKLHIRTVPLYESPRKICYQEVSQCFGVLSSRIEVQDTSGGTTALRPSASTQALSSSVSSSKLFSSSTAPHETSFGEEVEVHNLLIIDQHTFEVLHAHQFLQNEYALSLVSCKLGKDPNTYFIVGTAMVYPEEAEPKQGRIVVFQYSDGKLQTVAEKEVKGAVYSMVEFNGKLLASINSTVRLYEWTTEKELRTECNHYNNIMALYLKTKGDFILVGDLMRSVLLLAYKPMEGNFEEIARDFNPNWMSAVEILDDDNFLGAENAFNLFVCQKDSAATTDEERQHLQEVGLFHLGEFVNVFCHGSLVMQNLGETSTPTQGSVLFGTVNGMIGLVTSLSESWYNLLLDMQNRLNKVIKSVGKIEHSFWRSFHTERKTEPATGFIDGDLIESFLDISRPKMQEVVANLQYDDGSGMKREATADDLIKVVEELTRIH
Put plainly: Nluc/Fluc luciferase ratio assay of FKBP* degradation in 293FT cells. The assay is classed as cell-based. As to conditions: wild type or CRBN−/− 293FT cells, indicated concentrations, 4 hours. As for the experimental part:
In an effort to identify potent and selective dFKPB heterobifunctional compounds, high throughput measurements of targeted FKBP* degradation were measured by surrogate levels of luciferase. Here, FKBP* is exogenously expressed as a multicistronic transcript with two types of luciferase: nano luciferase (NLuc) and firefly luciferase (FLuc) that allow for cell normalized quantification of FKBP* protein levels. Degradation of FKBP* is measured as a signal ration (Nluc/Fluc) in wild type (FIG. 4A) or CRBN −/− (FIG. 4B) 293FT cells treated with indicated concentrations of dFKBPs for 4 hours.

For assay [3], the system named is indicated proteins fused to mutant FKBP* with an HA tag. Put plainly: Immunoblot of proteins fused to dTAG (FKBP*) in MV4;11 leukemia cells. The settings on record: indicated concentrations, 16 hours, western blot.
Source text: To test the general utility of the dTAG technology across several protein types, the indicated proteins fused to the dTAG in MV4;11 leukemia cells were expressed.
The test system of assay [4] is FKBP*-KRASG12V. The assay can be described thus: Immunoblot of FKBP*-KRASG12V (dTAG-KRAS) degradation in NIH3T3 cells. In kind it is cell-based. As for the experimental part:
(§1) Cells were treated with 500 nM dFKBP7 for the indicated time. Cells were harvested and immunoblotted to measure degradation of FKBP*-KRAS and downstream surrogates of KRAS signaling (e.g. pMEK and pAKT).
Western blotting of NIH3T3 cells expressing dTAG-KRASG12V were treated with 1 μM of the indicated dFKBP heterobifunctional compounds for 24 hours. Cells were harvested and immunoblotted to measure degradation of FKBP*-KRAS and downstream surrogates of KRAS signaling (e.g. pMEK and pAKT).
(§2) Western blotting of NIH3T3 cells expressing FKBP* fused to the N-terminus of KRAS treated with the indicated concentrations of dFKBP13 for 24 hours. Cells were harvested and immunoblotted to measure degradation of FKBP*-KRAS and downstream surrogates of KRAS signaling (e.g. pMEK and pAKT).
(§3) To evaluate the kinetic control of targeted degradation of dTAG-KRAS, dFKBP13 was administered by increased duration. Western blotting of NIH3T3 cells expressing FKBP* fused to the N-terminus of KRAS treated with 1 μM dFKBP13 for the indicated time. Cells were harvested and immunoblotted to measure degradation of FKBP*-KRAS and downstream surrogates of KRAS signaling (e.g. pMEK and pAKT).
NIH3T3 cells (CRBN-WT) were engineered to express dTAG-KRASG12V. […]

The subject of assay [5] is NIH3T3 cells expressing dTAG-KRASG12V. The assay can be described thus: Propidium iodide cell cycle analysis of NIH3T3 cells expressing dTAG-KRASG12V. The assay is classed as cell-based. As to conditions: 48 hours. As for the experimental part: NIH3T3 cells were engineered to express dTAG-KRASG12V. NIH3T3 cells expressing dTAG-KRASG12V were treated with dFKBP7 and dFKBP13 for 48 hours to induce targeted dTAG-KRASG12V degradation. Fixed cells were stained with propidium iodide and cell cycle analysis was performed.

Assay [6] deals with T3, FKBP* (Homo sapiens, UniProt P62942, F37V).
T3 construct: HA; expressed in transfected cells; host or cells: 293FT cells (CRBN-WT or CRBN-/-)
T3 sequence (P62942 whole entry F37V): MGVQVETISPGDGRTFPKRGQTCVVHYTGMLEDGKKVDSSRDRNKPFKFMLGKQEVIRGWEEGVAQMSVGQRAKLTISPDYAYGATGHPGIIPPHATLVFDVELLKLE
The assay can be described thus: Immunoblot of FKBP* degradation in 293FT cells (CRBN-WT or CRBN−/−). As to conditions: 4 hours. In kind it is cell-based. As for the experimental part: The dTAG is predicated on the selectivity of FKBP* specific ligands over endogenous, wild type FKBP. In 293T cells expressing wild type FKBP12 or FKBP*, dFKBP7 induces targeted degradation only in FKBP* expressing cells. An immunoblot of cells treated with heterobifunctional compounds described in the present invention was performed. 293FT cells (CRBN-WT or CRBN−/−) expressing either HA-tagged FKBP12WT or FKBP* were treated with indicated concentrations of dFKBP7 for 4 hours.
In 293T cells expressing wild type FKBP12 or FKBP*, treatment with dFKBP7 and dFKBP13 induces targeted degradation only in FKBP* expressing cells. Isogenic 293FT cells (CRBN-WT or CRBN−/−) were engineered to expressed either FKBP12WT or FKBP*. Cells were treated with 100 nM of either dFKBP7 or dFKBP13 for 4 hours before lysates were prepared for western immunoblot analysis.
In an effort to define the optimal concentration of dFKB13 heterobifunctional compound to induce degradation of FKBP*, degradation was measured upon treatment with increasing concentrations of dFKBP13. Isogenic 293FT cells (CRBN-WT or CRBN−/−) were engineered to expressed HA-tagged FKBP*. Cells were treated with the indicated dose of dFKBP13 for 4 hours before lysates were prepared for western immunoblot analysis.
To evaluate the kinetic control of targeted degradation FKBP*, dFKBP13 was administered by increased duration. […]

The subject of assay [7] is KRAS signaling (pMEK and pAKT). Put plainly: Immunoblot of downstream surrogates of KRAS signaling in NIH3T3 cells expressing dTAG-KRAS. The assay is classed as cell-based. As for the experimental part:
as §1
In an effort to identify the best performing dFKBP molecule, dTAG-KRAS degradation was profiled across a series of dFKBP molecules. Western blotting of NIH3T3 cells expressing dTAG-KRASG12V were treated with 1 μM of the indicated dFKBP heterobifunctional compounds for 24 hours. Cells were harvested and immunoblotted to measure degradation of FKBP*-KRAS and downstream surrogates of KRAS signaling (e.g. pMEK and pAKT).
as §2, §3
The dFKBP13 heterobifunctional compound potently degrades dTAG-KRAS mutant alleles. […]

Setting [8] is: 293FT CRBN-WT or CRBN−/−, indicated concentrations.
Where [9] appears, read: isogenic 293FT CRBN-WT or CRBN−/−, 100 nM.
[10] abbreviates: NIH3T3 dTAG-KRASG12V, 1 μM, 24 hours.

Entries after “also recorded” stand apart in the source; their conditions may differ.

T1 sequence (P62942 whole entry): as the sequence (P62942 whole entry F37V) above, with V37F counted along it

`CC[C@H](C(=O)N1CCCC[C@H]1C(=O)O[C@H](CCc1ccc(OC)c(OC)c1)c1cccc(OCC(=O)NCCCOCCOCCOCCCNC(=O)COc2cccc3c2C(=O)N(C2CCC(=O)NC2=O)C3=O)c1)c1cc(OC)c(OC)c(OC)c1` (some centres unmarked) [dFKBP7]: in assay [1] (setting [8]), the “degradation of HA-tagged FKBP12WT” value is “not FKBPWT”. Also, the “degradation of FKBP12WT or endogenous FKBP12” value in assay [1] (setting [9]) is “not FKBP12WT or endogenous FKBP12”. Besides, in assay [2], the “degradation of FKBP* as signal ratio (Nluc/Fluc)” value is listed as “effectively degrade FKBP* in a cereblon dependent manner”. Further, in assay [3], the “targeted degradation of proteins fused to dTAG” value is “degradation was observed with nanomolar concentrations”. Further, the “degradation of N-terminal dTAG-KRAS” value in assay [4] (NIH3T3, 500 nM, indicated time) is “potent degradation; also recorded: degraded”. For the same compound, in assay [5], the “cell cycle profile (S-phase entry)” value is recorded as “diminished S-phase entry”. Also, in assay [6] (setting [8]), the “degradation of HA-tagged FKBP*” value is recorded as “CRBN-dependent degradation of FKBP*”. Besides, the “degradation of FKBP*” value in assay [6] (setting [9]) is “CRBN-dependent degradation of FKBP*”. Further, the “downstream p-AKT signal” value in assay [7] (NIH3T3 N-terminal dTAG-KRAS, 500 nM, indicated time) is recorded as “decrease in p-AKT signal”.
For `CC[C@H](C(=O)N1CCCC[C@H]1C(=O)O[C@H](CCc1ccc(OC)c(OC)c1)c1cccc(OCC(=O)NCCCCCCCCNC(=O)COc2cccc3c2C(=O)N(C2CCC(=O)NC2=O)C3=O)c1)c1cc(OC)c(OC)c(OC)c1` (some centres unmarked) [dFKBP9], the “degradation of FKBP*-KRAS” value in assay [4] (setting [10]) is listed as “potent degradation”. For the same compound, in assay [7] (setting [10]), the “inhibition of downstream signaling (pMEK, pAKT)” value was “inhibition of downstream signaling”.
